Where two headings read alike, the source gives them in different places.
Legend:
[1] = test system: Plasmodium falciparum Dd2 asexual blood stage parasites; test: microbe, parasite or virus in culture; set-up: species or system Plasmodium falciparum Dd2 in human erythrocytes; single determination (one 11-point concentration-response curve); details: Plasmodium falciparum, DD2, Erythrocyte, 72 h
HepG2 = details: human, hepg2 cells, 48 h
in vitro = details: human, hepg2 cells

Structure (SMILES)	AC50 [1]	Log AC50 (M) (HepG2)	CC50 at 48 h (in vitro)	AC50 ([1]; read-out: AC50)
O=C(Nc1ccc(Nc2ccncc2)cc1)c1ccc(Nc2ccnc3ccc([N+](=O)[O-])cc23)cc1[N+](=O)[O-] [MLS000756458-01]	1.33 µM	-4.5643 M	27.3 µM	–
Fc1cccc(NC(S)=NNc2c3ccccc3nc3ccccc23)c1 [MLS000660813-01]	–	-6.0143 M	0.968 µM	15 µM
CC(C)(C)OC(=O)N1CCC(c2c(C(=O)NCCN3CCC(Cc4ccccc4)CC3)cnn2-c2ccc(F)cc2)CC1 [NCGC00126694-01]	–	-4.3643 M	43.2 µM	5.31 µM
CCCCN(CC)CCCNC(=O)c1ccc2c(c1)N(Cc1ccc(C)cc1)C(=O)c1ccccc1S2 [NCGC00139764-01]	–	-4.3643 M	43.2 µM	1.88 µM
CC(C)(C)c1ccc(NC(=O)OC[C@H]2C[C@@H]3CCN2C[C@@H]3c2cc(C3CCCC3)nc(-c3ccncc3)n2)cc1 [NCGC00391636-01]	–	-4.3643 M	43.2 µM	2.11 µM
CCCCN(C)CCCNC(=O)Cn1ncc2c3ccccc3n(Cc3cc(C)ccc3C)c2c1=O [NCGC00114267-01]	–	-4.4643 M	34.3 µM	0.75 µM
CN1CCC(Nc2ncc3ncnc(Nc4ccc(F)c(Cl)c4)c3n2)CC1.Cl.Cl [NCGC00161422-01]	–	-4.7643 M	17.2 µM	10.6 µM
CCCCC(=O)NC(c1ccccc1OC)c1ccc2cccnc2c1O (centres unmarked) [MLS000715346-01]	–	-4.7643 M	17.2 µM	5.31 µM
CC1=C[C@@H](CNCc2cccnc2)[C@H](C(C)C)C[C@H]1Cc1nnc(-c2ccc(N(C)C)cc2)o1 [NCGC00421481-01]	–	-4.4643 M	34.3 µM	5.31 µM
O[C@H]1[C@H](NCC2CCCCC2)[C@H]2CO[C@H](O2)[C@@H]1N1CCC(Cc2ccccc2)CC1 [NCGC00394729-01]	–	-4.3028 M	49.8 µM	1.37 µM
O=C(c1cc(NC(=O)C23CC4CC(CC(C4)C2)C3)cc(NC(=O)C23CC4CC(CC(C4)C2)C3)c1)N1CCCCC1 [MLS000549502-01]	–	-4.3643 M	43.2 µM	5.96 µM
CCOc1ccc2nc(C)cc(Nc3ccc4c(c3)OCCO4)c2c1 [MLS000575119-01]	–	-4.4143 M	38.5 µM	6.68 µM
CCCCOc1ccc(-c2nc(C3CC(=O)N(C4CCCCC4)C3)no2)cc1 (centres unmarked) [NCGC00448051-01]	–	-4.4643 M	34.3 µM	–
CC(=O)c1cn(CCOc2ccc(F)cc2)c2ccccc12 [MLS001205469-01]	–	-4.3643 M	43.2 µM	–
O=C(Nc1ccc(Oc2cccc(C(F)(F)F)c2)nc1)c1cccs1 [MLS000860613-01]	–	-4.7643 M	17.2 µM	–
C[S+](=O)([O-])N1CCC(OC2CCN(C(=O)Nc3cc(F)ccc3F)CC2)CC1 [NCGC00445092-01]	–	-4.3643 M	43.2 µM	–
CCc1ccc(NC(=O)C2CCN(c3cc(C(F)(F)F)ncn3)CC2)cc1 [NCGC00455558-01]	–	-4.4643 M	34.3 µM	–
Cc1cccc(Cn2nnc3c2C(=O)c2ccccc2C3=O)c1 [MLS000594471-01]	–	-4.3643 M	43.2 µM	–
Nc1nc(N)c2c(ccc3[nH]ccc32)n1 [MLS000758537-01]	–	-4.9143 M	12.2 µM	–
Cc1nn(C)c(C)c1CCC(=O)N1CCC(Cc2noc(-c3ccc(F)cc3)n2)C1 (centres unmarked) [NCGC00443260-01]	–	-4.5143 M	30.6 µM	–
COc1ccc(CNc2ncnc3c2[nH]c2ccccc23)cc1 [MLS000768346-01]	–	-4.3643 M	43.2 µM	–
N=c1ccn(Cc2cccc(Cl)c2)cc1 [MLS000080111-01]	–	-4.4643 M	34.3 µM	–
COc1cnc(-c2ccccn2)nc1Oc1ccc(C(C)(C)C)cc1 [MLS001165485-01]	–	-4.4143 M	38.5 µM	–
CCc1nnc([C@@H]2CC(F)(F)CN2Cc2cccn2C)o1 [NCGC00468656-01]	–	-4.8643 M	13.7 µM	–
O=C(Nc1cccc(C(F)(F)F)c1)C1CCN([S+](=O)([O-])c2cccc3nsnc23)CC1 [NCGC00108239-01]	–	-4.3643 M	43.2 µM	–

Structure (SMILES)	AC50 [1]	Log AC50 (M) (HepG2)	CC50 at 48 h (in vitro)	AC50 ([1]; read-out: AC50)
COc1ccc(C(=O)N2CCC(n3cc(-c4nc(-c5ccccc5)no4)nn3)C2)cc1 (centres unmarked) [NCGC00455125-01]	–	-4.3643 M	43.2 µM	–
CCCCCCc1cc2cc(-c3nnc(-c4ccc(C)cc4)o3)c(=O)oc2cc1O [NCGC00098410-01]	–	-4.4643 M	34.3 µM	–
O=C(NC1CCN(c2cc(-c3cccs3)n[nH]2)CC1)c1cccc(OC(F)(F)F)c1 [NCGC00437198-01]	–	-4.3643 M	43.2 µM	–
Cc1nc(-c2ccc(Cl)cc2)sc1CCNC(=O)c1ccco1 [NCGC00131874-01]	–	-5.1643 M	6.85 µM	–
COc1cc(NC(=O)Cn2c(N(C)Cc3ccccc3)nc(C)cc2=O)cc(OC)c1 [NCGC00432301-01]	–	-4.3643 M	43.2 µM	–
O=C(C[C@@H]1CCNC[C@@H]1Cc1cc(CC2CCCCC2)on1)NCc1ccccc1 [NCGC00400728-01]	–	-4.3028 M	49.8 µM	–
O=C(N/N=C/c1ccccn1)c1ccccc1 [MLS000562399-01]	–	-4.3643 M	43.2 µM	–
CC(C(=O)N1CCCN(c2cc(-c3ccc(Cl)cc3)n[nH]2)CC1)c1ccccc1 (centres unmarked) [NCGC00436178-01]	–	-4.3643 M	43.2 µM	–
OC(CNCCc1ccccc1)COc1ccc(OCC(O)CNCCc2ccccc2)cc1 (centres unmarked) [MLS000769724-01]	–	-4.3643 M	43.2 µM	–
Cc1cc(=O)n(CC(=O)Nc2cccc(C(F)(F)F)c2)c(N2CCC(C)CC2)n1 [NCGC00432189-01]	–	-4.5143 M	30.6 µM	–
O=C1CCN(Cc2ccc(C(F)(F)F)cc2)CCCC(c2nc(-c3cccnc3)no2)CCN1 (centres unmarked) [NCGC00465921-01]	–	-4.5643 M	27.3 µM	–
Cc1ccc(NC(=O)C2CCN(c3cc(C(F)(F)F)ncn3)CC2)cc1 [NCGC00455557-01]	–	-4.4643 M	34.3 µM	–
Cc1ccccc1Cn1c(CN2CCC(C(=O)NCCN(C)C)CC2)cc2ccccc21 [NCGC00137638-01]	–	-4.3643 M	43.2 µM	–
O=C(Nc1ccc(Oc2cccnc2)cc1)C1CCN(Cc2cc(Cl)ccc2O)CC1 [MLS001072411-01]	–	-4.5143 M	30.6 µM	–
CC(C)c1nc(-c2ccc(OC3CCN(C(=O)c4cc(F)ccc4F)C3)cc2)no1 (centres unmarked) [NCGC00441011-01]	–	-4.4643 M	34.3 µM	–
CC(=O)N1CCN(c2cc(-c3noc([C@@H]4CCCN4Cc4ccc(C(F)(F)F)cc4)n3)ccn2)CC1 [NCGC00394931-01]	–	-4.5143 M	30.6 µM	–
OC[C@H]1CCN(Cc2ccc(-c3cccc(Cl)c3Cl)o2)C[C@@H]1O [NCGC00438915-01]	–	-4.5143 M	30.6 µM	–
O=c1c2ccccc2nc2n1CCN2Cc1ccc(Cl)cc1 [MLS000107729-01]	–	-4.3643 M	43.2 µM	–
Brc1ccc2[nH]c3c(N4CCc5ccccc5C4)ncnc3c2c1 [MLS000556376-01]	–	-4.3643 M	43.2 µM	–
Cc1nc(C)c(C(=O)N2CC(Oc3ccc(-c4noc(-c5ccccc5)n4)cc3)C2)s1 [NCGC00458037-01]	–	-4.5143 M	30.6 µM	–
CCOC(=O)c1ccc(N2C(=O)c3[nH]nc(-c4ccc(OC)cc4)c3C2c2cccc(O)c2)cc1 (centres unmarked) [NCGC00108527-01]	–	-4.3643 M	43.2 µM	–
SC(=Nc1ccncc1)NCc1ccccc1 [MLS001230114-01]	–	-4.5643 M	27.3 µM	–
COc1cccc(-c2noc(CCCc3nc(-c4cccnn4)no3)n2)c1 [NCGC00435845-01]	–	-4.5143 M	30.6 µM	–
COc1ccc2cc1Nc1ccc(cc1)C[C@H](NC(=O)CCc1ccccn1)C(=O)N(C)[C@@H](C(=O)NCc1ccccc1)C2 [NCGC00410291-01]	–	-4.6143 M	24.3 µM	–
